The target in data set [1] is T1, ATP-dependent translocase ABCB1 (Homo sapiens, UniProt P08183). Description: Inhibition of human MDR1 transfected in mouse NIH/3T3 MDR1-G185 cells assessed as daunomycin accumulation at 10 uM after 30 mins by flow cytometry (reference value: 13.2 +/- 1.1%). The class given is cell-based. Also on record: scale not given: the % may be the effect or the level left. As to conditions: nih/3t3 mdr1-g185, 0.5 h. In general terms: A flow cytometer gives signals particle by particle.
T1 sequence (P08183 whole entry): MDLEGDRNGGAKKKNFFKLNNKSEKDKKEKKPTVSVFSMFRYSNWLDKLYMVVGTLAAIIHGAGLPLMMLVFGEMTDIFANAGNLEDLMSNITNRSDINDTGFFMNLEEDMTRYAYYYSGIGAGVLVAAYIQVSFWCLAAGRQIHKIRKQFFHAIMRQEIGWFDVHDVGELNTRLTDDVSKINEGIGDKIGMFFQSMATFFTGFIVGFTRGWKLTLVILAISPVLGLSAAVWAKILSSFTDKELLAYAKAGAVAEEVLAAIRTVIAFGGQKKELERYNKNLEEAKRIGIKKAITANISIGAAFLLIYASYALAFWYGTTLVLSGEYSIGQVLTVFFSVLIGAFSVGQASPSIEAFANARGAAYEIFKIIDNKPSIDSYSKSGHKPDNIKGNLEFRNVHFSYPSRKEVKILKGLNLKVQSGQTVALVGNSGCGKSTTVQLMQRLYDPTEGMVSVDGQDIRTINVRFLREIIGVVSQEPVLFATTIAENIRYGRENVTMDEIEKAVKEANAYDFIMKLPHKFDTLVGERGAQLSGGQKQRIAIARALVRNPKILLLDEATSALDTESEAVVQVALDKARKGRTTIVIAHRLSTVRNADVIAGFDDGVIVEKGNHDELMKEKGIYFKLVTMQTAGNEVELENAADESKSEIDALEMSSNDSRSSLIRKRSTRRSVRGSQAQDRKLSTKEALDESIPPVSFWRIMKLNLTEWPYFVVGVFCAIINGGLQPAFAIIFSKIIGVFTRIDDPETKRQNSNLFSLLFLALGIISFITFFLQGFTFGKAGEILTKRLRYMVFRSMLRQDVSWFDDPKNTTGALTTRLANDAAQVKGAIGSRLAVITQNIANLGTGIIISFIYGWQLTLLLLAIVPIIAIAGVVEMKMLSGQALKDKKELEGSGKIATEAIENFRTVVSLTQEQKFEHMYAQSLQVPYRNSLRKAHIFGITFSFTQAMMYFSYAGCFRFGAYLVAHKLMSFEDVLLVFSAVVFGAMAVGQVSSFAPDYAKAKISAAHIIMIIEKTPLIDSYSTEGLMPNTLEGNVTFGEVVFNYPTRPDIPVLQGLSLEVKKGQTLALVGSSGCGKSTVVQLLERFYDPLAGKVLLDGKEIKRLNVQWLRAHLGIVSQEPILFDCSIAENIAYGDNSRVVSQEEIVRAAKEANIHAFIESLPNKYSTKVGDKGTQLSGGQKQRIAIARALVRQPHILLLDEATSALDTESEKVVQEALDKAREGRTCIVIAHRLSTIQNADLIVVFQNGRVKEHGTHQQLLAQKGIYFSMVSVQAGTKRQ

The target in data set [2] is T1, ATP-dependent translocase ABCB1. Description: Inhibition of human MDR1 transfected in mouse NIH/3T3 MDR1-G185 cells assessed as […] daunomycin accumulation after 30 mins by flow cytometry. Format: cell-based.
Data set [3] in a line: Cytotoxicity against human MDR1 transfected mouse NIH/3T3 MDR1-G185 cells assessed as cell growth at 10 uM after 24 hrs by MTT assay. Format: ADME, cell-based, NIH3T3. The conditions noted are these: mouse NIH/3T3 MDR1-G185 cells transfected with human MDR1, read-out: Activity. In general terms: Tetrazolium dyes change colour on reduction, which living cells bring about.
Data set [4] is described as follows: Cytotoxicity against mouse NIH/3T3 cells assessed as cell growth at 10 uM after 24 hrs by MTT assay. As to conditions: read-out: Activity. The class given is cell-based, NIH3T3.

For orientation: Ki means the equilibrium dissociation constant of an inhibitor or competing ligand from its target. For the compound `CC(=O)O[C@H]1CC[C@](C)(O)[C@]23OC(C)(C)[C@H]([C@H](OC(=O)/C=C\c4ccccc4)[C@H](OC(=O)c4ccccc4)[C@]12C)[C@H]3OC(C)=O`, in data set [1], the Activity is reported as 82.2%. In data set [2], the Ki is 0.61 µM. For the same compound, the viability at 24 h, 10 µM in data set [3] came to 64.3%; in data set [4] it was 51.4%.
Take `CC(=O)O[C@H]1[C@@H](OC(=O)c2ccccc2)[C@]2(C)[C@@H](O)[C@@H](OC(C)=O)C[C@](C)(O)[C@@]23C[C@@H]1C(C)(C)O3`: the Activity in data set [1] was determined as 37%.
The same measure, in the same setting: then `CC(=O)OC[C@]12[C@@H](OC(=O)c3ccccc3)[C@@H](O)[C@@H]3[C@@H](OC(C)=O)[C@]1(OC3(C)C)[C@@](C)(O)C[C@H](OC(=O)c1ccccc1)[C@@H]2OC(C)=O`, with 73.2%.
As for `COc1ccc(CCN(C)CCCC(C#N)(c2ccc(OC)c(OC)c2)C(C)C)cc1OC` (configuration not stated), the Activity in data set [1] is 60.3%. For the same compound, the viability at 24 h, 10 µM in data set [3] is 80.8%.
Turning to `CC(=O)O[C@H]1[C@@H](OC(=O)c2ccccc2)C[C@@H](C)[C@]23OC(C)(C)[C@H](C[C@H](OC(=O)c4ccccc4)[C@]12C)[C@H]3OC(=O)c1cccnc1`, the Activity in data set [1] is recorded as 80.1%. In data set [2], the Ki was determined as 0.29 µM. The viability at 24 h, 10 µM was 70.2% in data set [3] and 75.4% in data set [4].
The matching figures for `CC(=O)OC[C@]12[C@@H](OC(=O)c3ccccc3)[C@@H](OC(C)=O)[C@@H]3[C@@H](OC(=O)c4ccccc4)[C@]1(OC3(C)C)[C@@](C)(O)C[C@H](OC(C)=O)[C@@H]2OC(C)=O`: 79.7%, 0.78 µM, 71.4% and 64.4%.
Consider `CC(=O)OC[C@]12[C@@H](OC(=O)c3ccccc3)C[C@@H]3[C@@H](OC(C)=O)[C@]1(OC3(C)C)[C@@](C)(O)C[C@H](OC(=O)c1ccccc1)[C@@H]2OC(C)=O`, for which, in data set [1], the Activity came to 73.6%.
Turning to `CC(=O)OC[C@]12[C@@H](OC(=O)c3ccccc3)[C@@H](OC(C)=O)[C@@H]3[C@@H](OC(C)=O)[C@]1(OC3(C)C)[C@@](C)(O)C[C@H](OC(C)=O)[C@@H]2OC(C)=O`, the Activity in data set [1] came to 69.9%.
Still for that read-out and setting: to `CC(=O)O[C@H]1[C@@H]2[C@@H](OC(=O)c3ccccc3)[C@@]3(OC2(C)C)[C@@](C)([C@@H](O)[C@@H](OC(C)=O)C[C@]3(C)O)[C@H]1OC(=O)c1ccccc1` belongs 73.1%; to `CC(=O)OC[C@]12[C@@H](OC(=O)c3ccccc3)[C@@H](OC(C)=O)[C@@H]3C[C@]1(OC3(C)C)[C@H](C)C[C@H](OC(C)=O)[C@@H]2OC(C)=O`, 68.2%.
Same read-out and setting: to `CC(=O)OC[C@@]12[C@@H](OC(C)=O)CC[C@](C)(O)[C@]13OC(C)(C)[C@H](C[C@@H]2OC(=O)c1ccccc1)[C@H]3OC(C)=O` belongs 72.4%; to `CC(=O)O[C@@H]1[C@@H]2[C@@H](OC(=O)c3ccccc3)[C@@]3(OC2(C)C)[C@](C)([C@@H]1OC(=O)c1ccccc1)[C@@H](OC(C)=O)[C@@H](O)C[C@]3(C)O`, 73.2%.
The same measure, in the same setting: then `CC(=O)OC[C@]12[C@@H](OC(=O)c3ccccc3)[C@@H](OC(C)=O)[C@@H]3[C@@H](OC(C)=O)[C@]1(OC3(C)C)[C@@](C)(O)C[C@H](OC(=O)c1ccccc1)[C@@H]2OC(C)=O`, with 73.8%.
In the case of `CC(=O)O[C@H]1C[C@](C)(O)[C@]23OC(C)(C)[C@H]([C@H](OC(=O)/C=C/c4ccccc4)[C@H](OC(=O)c4ccccc4)[C@]2(C)[C@H]1OC(C)=O)[C@H]3O`, the Activity in data set [1] was found to be 85.1%. In data set [2], the Ki was 0.42 µM. The viability at 24 h, 10 µM in data set [3] worked out at 78.4%; in data set [4], 69%.
